Patent publication US20260240851A1, “Treatment of Parkinson's Disease in a Patient Using a Glucocerebrosidase Activator” (BIAL - R&D Investments, S.A., priority 2023, published 2026)

Assays:
[1] = LTI-291-003: NeuroCart, MMSE, MDS-UPDRS, EEG; format: in vivo, human; conditions: 10, 30, 60 mg daily for 28 days, GBA-PD
Protocol: GluCer, GluSph, and LacCer were measured in plasma, PBMCs, and CSF as biomarkers of pharmacological effects. The pharmacodynamic evaluations also consisted of a battery of NeuroCart assessments (Saccadic Eye Movements, Smooth Pursuit Eye Movements, Adaptive Tracking, Body Sway, and Visual Verbal Learning Test); functional outcome measures (MDS-UPDRS Part III, and the MMSE); and pharmaco-EEG.

GCase = biological target: T1, GCase (Homo sapiens, UniProt P04062); experiment: In vitro GCase brain homogenate activity assay superimposed on estimated human brain Cb,min,ss; format: biochemical; conditions: for minimum GCase activity in GBA-PD patients: brain Cmin at steady state (Cb,min,ss), estimated
T1 construct: brain homogenate (5 μg/well) as enzyme source; from tissue; host or cells: human brain homogenate
T1 sequence (P04062 40-536): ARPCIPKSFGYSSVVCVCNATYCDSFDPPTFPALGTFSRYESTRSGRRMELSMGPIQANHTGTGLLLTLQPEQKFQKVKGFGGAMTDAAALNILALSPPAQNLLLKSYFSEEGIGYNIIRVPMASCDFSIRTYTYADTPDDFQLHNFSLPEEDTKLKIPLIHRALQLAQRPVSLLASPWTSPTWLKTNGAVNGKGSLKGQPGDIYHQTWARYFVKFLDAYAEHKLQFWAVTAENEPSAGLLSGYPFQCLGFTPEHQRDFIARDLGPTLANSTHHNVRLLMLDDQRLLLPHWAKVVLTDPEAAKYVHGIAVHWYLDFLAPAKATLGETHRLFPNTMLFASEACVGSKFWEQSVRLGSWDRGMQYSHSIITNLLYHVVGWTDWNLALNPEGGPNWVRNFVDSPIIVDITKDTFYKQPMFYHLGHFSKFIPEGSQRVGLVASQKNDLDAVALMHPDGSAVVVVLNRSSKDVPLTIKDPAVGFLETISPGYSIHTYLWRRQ
Excerpt: The in vitro measurement of GCase activity in human brain homogenates was used to correlate the exposure and GCase activity and to estimate the increase in GCase activity in the brain of GBA-PD patients at Cmin at steady state (Cb,min,ss) across different dose levels. The relationship between concentration observed in brain and CSF in rat was used to obtain the brain concentrations of Compound A in humans, assuming the same relationship conserved among mammalian species. The range of human estimated Cb,min,ss were superimposed to the corresponding concentration from in vitro study with human brain homogenates to obtain the GCase activation by Compound A.
The activity of Compound A in the GCase assay was determined using 4-MUG (1 mM) as substrate and brain homogenate (5 μg/well) as enzyme source.
A 500 μl aliquot of a 1.0 mg/ml solution of phosphatidylserine (PS, Sigma P7769) in chloroform was evaporated under a stream of nitrogen for 1 hour. The lipid film was dissolved with 4 minutes of vigorous vortexing in 41 ml of 176 mM K2HPO4/50 mM citric acid pH 4.7 containing 7.7 μl of triton X-100, resulting in a mixed micellar preparation with a composition of 0.32 mM triton and 4.6 mol % PS.
4-methylumbelliferyl-beta-D-glucopyranoside (4-MUG, ACROS-337025000) was dissolved in the micellar solution to a final concentration of 2 mM for use as the reaction substrate. The micellar/homogenate solution was prepared by adding 3.2 ml Triton X-100/phosphotidylserine mixed micelles containing 400 μg/mL brain homogenate. A 1.6 mL portion of this mixture received 32 μl conduritol B epoxide (CBE, 100 mM stock in DMSO) for final concentration of 2 mM CBE. The remaining 1.6 mL portion received 32 μl DMSO as solvent control. Compound A was diluted with DMSO from a 10 mM stock to the desired assay concentrations, and 0.45 μl of compound in DMSO was added to 75 μl of micellar/homogenate solution (+/−CBE).
After a 30 minute pre-incubation at room temperature, the reaction was initiated by combining 25 μl of substrate solution with 25 μl of compound/GCase/homogenate mixture. The reaction proceeded for 30 minutes at room temperature for Rat, Cyno and Dog brain homogenates, 60 minutes for Mouse and Human brain homogenate. The reaction was stopped by adding 150 μl of 1M glycine, pH 12.5. The endpoint fluorescence intensity of the reaction was measured at excitation 365 nm, emission 440 nm on a SpectraMax i3 instrument (Molecular Devices). Compound activity was expressed relative to a DMSO control. […]
An API4000 mass spectrometer equipped with a turbo ion spray source was used for detection in positive ion mode. Quantification was based on multiple reaction monitoring (MRM) of the transitions of m/z 359.2-174.2 for LTI-291 and m/z 365.3-180.2 for its internal standard. […]

[2] = BIA 28-6156-105: continuous cardiac monitoring, concentration-QTc analysis
[3] = after 6 days of dosing with 60 mg, Madopar portion
Protocol: This was a Phase 1, non-randomized, open-label, 2-cohort, cross-over, DDI study in healthy male and female subjects.
In Cohort 2, a single oral dose 100 mg/25 mg levodopa-benserazide (Madopar®) IR was administered alone on Day 1.

In the case of `CCCCCO[C@H]1CC[C@H](NC(=O)c2cnn3c(C)cc(C)nc23)CC1` [Compound A, 5,7-dimethyl-N-((1S*,4S)-4-(pentyloxy)cyclohexyl)pyrazolo[1,5-a]pyrimidine-3-carboxamide], the “effects on NeuroCart tests, MMSE, MDS-UPDRS, EEG” value [1] was “no dose-dependent effects”, the “minimum GCase activity in GBA-PD patients” value (GCase; 10 mg) was 69.7-123% and the “minimum GCase activity relative to effective GCase activity” value (GCase; 10 mg, dosing interval 24 h) was “approximately 2 times”. The “minimum GCase activity in GBA-PD patients” value (GCase; 30 mg) was 163-306%, the “minimum GCase activity in GBA-PD patients” value (GCase; 60 mg) was 255-376% and the “effects on cardiac ECG parameters” value ([2]; doses of 60 and 150 mg) was “no clinically relevant effects”. The “effect on ΔΔQTcF (concentration-QTc analysis)” value ([2]; plasma concentrations of Compound A up to approximately 7150 ng/mL) was no more than 10 ms and the “steady state concentrations of Compound A” value [3] was “appeared not to have been reached”.
